Experimental data reported in PMC5899049 (ACS infectious diseases, 2017).
In brackets after ≈: the same amount, converted by molar mass. Where two headings read alike, the source gives them in different places.

Assays:
[1] = molecular target: Recombinant P. falciparum IspD (Plasmodium falciparum, UniProt Q8I273); assay: Pf IspD enzymatic assay; format: biochemical; details: for IC50: read-out: PfIspD IC50, measured at 60 nM Pf IspD; for PfIspD % inhibition at 1 μM (1000 nM): 1 μM (1000 nM) compound, 60 nM Pf IspD, NI = no inhibition
[2] = test system: E. coli, strain BL21(DE3); assay: E. coli growth inhibition assay; format: cell-based, Escherichia coli; details: for % E. coli growth inhibition (18 h): NI = no inhibition
[3] = test system: P. falciparum, Dd2 strain (MRA-150); details: read-out: P. falciparum growth inhibition IC50; Dd2 (MRA-150) strain; data reported previously; cited from earlier work
[4] = test system: MEP pathway intermediates (CDP-ME, MEcPP, IPP) in P. falciparum schizont stage parasites; assay: MEP pathway metabolite profiling by LC-MS/MS; format: cell-based, Plasmodium falciparum; details: 1 μM 1a or 7a, 10 μM FOS; for Decrease in cellular levels of Pf IspD product CDP-ME: schizont stage; for Reduction of the IPP levels: 4 h treatment
[5] = test system: MEP pathway metabolites in parasites starting at ring stage; details: 5 μM FOS for 10 h starting at ring stage; ref 24 (Zhang et al.); cited from earlier work
[6] = test system: P. falciparum (Dd2 strain); assay: Cytocidal; format: cell-based, Plasmodium falciparum; details: LC50 could not be determined
[7] = molecular target: T1, Human IspD (hIspD) (Homo sapiens, UniProt A4D126); assay: Human IspD enzymatic assay; format: biochemical; details: 2 μM hIspD, 37 °C, 16 h
T1 sequence (A4D126 1-451): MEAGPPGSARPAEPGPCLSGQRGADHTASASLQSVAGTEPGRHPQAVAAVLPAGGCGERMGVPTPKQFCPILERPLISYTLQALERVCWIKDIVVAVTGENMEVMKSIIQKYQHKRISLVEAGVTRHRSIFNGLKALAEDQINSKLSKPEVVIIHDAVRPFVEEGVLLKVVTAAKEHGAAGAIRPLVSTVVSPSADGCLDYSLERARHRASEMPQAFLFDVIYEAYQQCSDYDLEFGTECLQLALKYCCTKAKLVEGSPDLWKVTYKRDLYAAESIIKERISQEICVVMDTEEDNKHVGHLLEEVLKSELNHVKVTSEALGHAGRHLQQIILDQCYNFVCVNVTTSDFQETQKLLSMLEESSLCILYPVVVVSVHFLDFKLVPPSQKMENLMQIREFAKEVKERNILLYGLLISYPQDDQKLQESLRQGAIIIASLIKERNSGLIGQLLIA

[8] = test system: E. coli, strain BL21(DE3); details: 500 μM; NI = no inhibition; data reported previously; cited from earlier work
[9] = molecular target: P. falciparum IspD; details: read-out: P. falciparum IspD Ki; cited from earlier work
[10] = test system: Arabidopsis thaliania IspD; details: concentrations up to 10 μM; cited from earlier work
[11] = test system: Mycobacterium tuberculosis IspD; details: concentrations up to 10 μM; cited from earlier work
[12] = test system: Escherichia coli IspD (EcIspD); details: concentrations up to 10 μM; cited from earlier work
[13] = test system: P. falciparum, Dd2 strain (MRA-150); assay: P. falciparum growth inhibition; details: Plasmodium falciparum, DD2, 72 h, read-out: IC50 value at 72 h

CNC(=O)C1Cc2c([nH]c3ccccc23)C(c2ccc(Br)cc2Cl)N1 (stereo not shown) [7j]
IC50 [1]: 21 ± 6 nM

O=C(O)[C@H]1Cc2c([nH]c3ccccc23)[C@@H](c2ccc(Cl)cc2Cl)N1 (single isomer, unassigned; ent-5a) [ent-5a]
PfIspD % inhibition at 1 μM (1000 nM) [1]: 27 ± 5% inh. @ 1 μM | % E. coli growth inhibition (18 h) ([2]; 250 μM): 18 ± 6 @ 250 μM % | IC50 [3]: 3000 ± 200 nM

O=CN(O)CCCP(=O)(O)O [FOS, fosmidomycin, reference compound]
inhibition at 10 µM ([1]; read-out: PfIspD % inhibition at 10 μM, 10 μM compound, 60 nM Pf IspD): ~4% | MIC ([2]; Escherichia coli, 18 h, read-out: E. coli minimum inhibitory concentration (MIC)): 11.99 ± 0.02 µM (≈ 2.2 µg/mL) | Decrease in cellular levels of Pf IspD product CDP-ME ([4]; 2 h exposure): did not cause significant reduction | Decrease in cellular levels of Pf IspD product CDP-ME ([4]; 4 h exposure): did not cause significant reduction | Reduction of the IPP levels [4]: > 90% | IC50 [3]: 880 ± 70 nM | Levels of CDP-ME [5]: reduced levels

O=C(O)[C@H]1Cc2c([nH]c3ccccc23)[C@H](c2ccc(Cl)cc2Cl)N1 (single isomer, unassigned; ent-1a) [ent-1a]
% E. coli growth inhibition (18 h) ([2]; 250 μM): no effect | IC50 [3]: > 10000 nM

O=C(O)[C@@H]1Cc2c([nH]c3ccccc23)[C@@H](c2ccc(Cl)cc2Cl)N1 [1a, (1R,3S)-MMV008138]
Parasite growth at 72 h after wash-out ([6]; 6 h incubation): grow similarly to untreated controls | Parasite growth at 72 h after wash-out ([6]; 12 h incubation): grow similarly to untreated controls | Decrease in cellular levels of Pf IspD product CDP-ME ([4]; 2 h exposure): 67 ± 2% | Decrease in cellular levels of Pf IspD product CDP-ME ([4]; 4 h exposure): 84 ± 8% | Reduction of the IPP levels [4]: > 90% | Human IspD CDP-ribitol formation ([7]; 20 μM 1a): not inhibited | Human IspD CDP-ribitol formation ([7]; 200 μM 1a): not inhibited | IC50 [3]: 250 ± 70 nM | % E. coli growth inhibition (18 h) [8]: no effect | Ki [9]: 7 to 13 nM | Inhibition of Arabidopsis thaliania IspD [10]: did not inhibit | Inhibition of Mycobacterium tuberculosis IspD [11]: did not inhibit | Inhibition of Escherichia coli IspD [12]: did not inhibit | IC50 [13]: 350 ± 30 nM

O=C(O)[C@@H]1Cc2c([nH]c3ccccc23)[C@H](c2ccc(Cl)cc2Cl)N1 [5a]
% E. coli growth inhibition (18 h) ([2]; 125 μM): no effect | IC50 [3]: > 10000 nM

CCNC(=O)C1Cc2c([nH]c3ccccc23)C(c2ccc(Cl)cc2Cl)N1 (stereo not shown) [8a]
IC50 [1]: ~1000 nM

COc1ccc(C2NC(C(=O)O)Cc3c2[nH]c2ccccc32)cc1OC (stereo not shown) [1x]
IC50 [3]: > 20000 nM

CNC(=O)C1Cc2c([nH]c3ccccc23)C(c2ccc(Cl)cc2Br)N1 (stereo not shown) [7k]
IC50 [1]: 31 ± 4 nM

Clc1ccc(C2NCCc3c2[nH]c2ccccc32)c(Cl)c1 (stereo not shown) [11a]
PfIspD % inhibition at 1 μM (1000 nM) [1]: 7% inh. @ 1000 | % E. coli growth inhibition (18 h) ([2]; 250 μM): 45 ± 10 @ 250 μM %
